As a reminder, the LogP is the decadic logarithm of the partition coefficient of the neutral form, usually between octanol and water. Read a high LogP as a more lipophilic compound. What is called chromatographic logP is lipophilicity estimated from chromatographic retention. Read a high chromatographic logP as higher lipophilicity.

The subject of one data set is Botrytis cinerea. Kind of data set: In vivo test on Botrytis cinerea (grey mould). Particulars: gherkin plants, spray, 500 ppm, grading 4/5 days after contamination. The procedure: The active ingredients tested are prepared by homogenization in a mixture of acetone/Tween/DMSO, then diluted with water to obtain the desired active material
Gherkin plants (Vert petit de Paris variety), sown on a 50/50 peat soil-pozzolana substrate in starter cups and grown at 18-20° C., are treated at the cotyledon Z11 stage by spraying with the active ingredient prepared as described above.
Plants, used as controls, are treated with an aqueous solution not containing the active material. After 24 hours, the plants are contaminated by spraying them with an aqueous suspension of cryopreserved Botrytis cinerea spores (50.000 spores per ml) on upper surface of the leaves. The spores are suspended in a nutrient solution composed of: • 10 g/L of PDB; • 50 g/L of D-fructose; • 2 g/L of NH4NO3; • 1 g/L of KH2PO4.
The contaminated cucumber plants are settled for 4/5 days in a climatic room at 17° C. (day/night) and at 80% relative humidity.
Grading is carried out 4/5 days after the contamination, in comparison with the control plants.
(§1) Under these conditions, good (at least 70%) or total protection is observed at a dose of 500 ppm with the following compounds: […]

For data set [1] the following is noted: pH 2.7.
Another data set has as its system Pyrenophora teres. Kind of data set: In vivo test on Pyrenophora teres (barley net blotch). The following applies: barley plants, spray, 500 ppm, grading 12 days after contamination. As to the method:
The active ingredients tested are prepared by homogenization in a mixture of acetone/Tween/DMSO, then diluted with water to obtain the desired active material concentration.
Barley plants (Plaisant variety), sown on a 50/50 peat soil-pozzolana substrate in starter cups and grown at 22° C. (12 h)/20° C. (12 h), are treated at the 1-leaf stage (10 cm tall) by spraying with the active ingredient prepared as described above.
(§2) Plants, used as controls, are treated with an aqueous solution not containing the active material.
After 24 hours, the plants are contaminated by spraying them with an aqueous suspension of Pyrenophora teres spores (12.000 spores per ml). The spores are collected from a 12-day-old culture.
The contaminated barley plants are incubated for 24 hours at about 20° C. and at 100% relative humidity, and then for 12 days at 80% relative humidity.
Grading is carried out 12 days after the contamination, in comparison with the control plants.
Under these conditions, good (at least 70%) is observed at a dose of 500 ppm with the following compounds: […]

The next data set has as its system Phytophthora infestans. In kind it is in vivo. Particulars: tomato plants, spray, 500 ppm, grading 5 days after contamination.
The test system of a further data set is Puccinia recondita. Briefly: In vivo test on Puccinia recondita (brown rust). Particulars: wheat plants, spray, 500 ppm, grading 10 days after contamination. The procedure, abridged:
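Wheat (Scipion) at the 1-leaf stage sprayed with compound suspension (acetone/tween/DMSO diluted in water), then inoculated 24 h later with Puccinia recondita spores at 100.000 spores per ml. Plants were held 24 h at 20 °C/100% RH, then 10 days at 20 °C/70% RH; protection graded 10 days post-inoculation versus untreated controls.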

The next data set relates to Uromyces appendiculatus. Kind of data set: In vivo test on Uromyces appendiculatus (brown rust of bean). The following applies: Saxa variety plants, spray, 500 ppm, grading 10 days after contamination. As to the method:
The active ingredients tested are prepared by homogenization in a mixture of acetone/tween/DMSO, then diluted with water to obtain the desired active material.
[…] (Saxa variety) sown on 50/50 peat soil-pozzolana substrate in starter cups and grown at 24° C., are treated at the 2-leaf stage (9 cm tall) by spraying with the aqueous suspension described above.
as §2
After 24 hours, the plants are contaminated by spraying the leaves with an aqueous suspension of Uromyces appendiculatus spores (150.000 spores per ml). The spores are collected from a 10-day-old contaminated […] and are suspended in water containing 2.5 ml/l of tween 80 10%. The contaminated […] are incubated for 24 hours at 20° C. and at 100% relative humidity, and then for 10 days at 20° C. and at 70% relative humidity. Grading is carried out 10 days after the contamination, in comparison with the control plants.
as §1

Data set [2] relates to Mycosphaerella graminicola. Briefly: In vivo test on Mycosphaerella graminicola (wheat leaf spot). Particulars: wheat plants, spray, 500 ppm, grading 21 to 28 days after contamination. As to the method: The active ingredients tested are prepared by homogenization in a mixture of acetone/tween/DMSO, then diluted with water to obtain the desired active material concentration.
Wheat plants (Scipion variety), sown on a 50/50 peat soil-pozzolana substrate in starter cups and grown at 22° C. (12 h)/20° C. (12 h), are treated at the 1-leaf stage (10 cm tall) by spraying with the aqueous suspension described above. Plants, used as controls, are treated with an aqueous solution not containing the active material.
After 24 hours, the plants are contaminated by spraying them with an aqueous suspension of cryopreserved Mycosphaerella graminicola spores (500.000 spores per ml). The contaminated wheat plants are incubated for 72 hours at 18° C. and at 100% relative humidity, and then for 21 to 28 days at 90% relative humidity.
Grading (% of efficacy) is carried out 21 to 28 days after the contamination, in comparison with the control plants.
as §1

A short description of data set [3]: Measurement of log P values by HPLC on reversed phase columns (EEC directive 79/831 Annex V.A8). The following applies: pH 2.7.
A further data set relates to Plasmopara viticola. Briefly: Plasmopara test (grapevines)/preventive. Particulars: preventive spray, 10 ppm of active ingredient, evaluated 6 days after inoculation. The class given is in vivo. The procedure, abridged: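 Young grapevines sprayed preventively with compound formulated in acetone/dimethylacetamide with emulsifier, diluted in water, then inoculated with P. viticola spores after drying. Held 1 day at ~20 °C/100% RH, 4 days in greenhouse at ~21 °C/~90% RH, then misted for 1 day. Efficacy scored 6 days post-inoculation (0% = untreated control, 100% = no disease).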

Marks after values point to notes of the source that are not given here.

With `COc1cccc(C(=NOCc2cccc(N)n2)c2noc(=O)[nH]2)c1` (mixture of isomers) [Example 354], in the data set on Botrytis cinerea, the Eff. % is 71%. In [1], the log partition coefficient (LogP) is 1.29 [a].
For the compound `Cn1c(/C(=N\OCc2cccc(NC(=O)C3CC3)n2)c2ccccc2)noc1=O` [Example 35], the Eff. % with Botrytis cinerea was determined as 71%; with Pyrenophora teres, 100%. Further, the lipophilicity (LogP) in [1] is 2.92 [a].
Regarding `CCCCCOC(=O)Nc1cccc(CO/N=C(/c2cccc(OC)c2)c2noc(=O)n2C)n1` [Example 36], the Eff. % was 85% with Phytophthora infestans, 86% in the data set on Botrytis cinerea, 71% with Pyrenophora teres and 75% with Puccinia recondita. In data set [1], the LogP is 4.46 [a].
In the case of `CC(Nc1cccc(CO/N=C(/c2ccccc2)c2noc(=O)n2C)n1)c1ccccc1` (centres unmarked) [Example 43, 4-methyl-3-{(Z)-phenyl[({6-[(1-phenylethyl)amino]pyridin-2-yl}methoxy)imino]methyl}-1,2,4-oxadiazol-5(4H)-one], the Eff. % in the data set with Phytophthora infestans is 100%; in the data set on Uromyces appendiculatus it was 75%; in data set [2], 91%; in the data set on Puccinia recondita it was 94%. This compound had a chromatographic logP in data set [3] of 2.86.
For the compound `CCCCCCOC(=O)Nc1nc(CO/N=C(/c2ccccc2)c2noc(=O)n2C)cs1` [Example 53], the Eff. % with Phytophthora infestans was 73%; in the data set with Pyrenophora teres, 70%. Further, the LogP in data set [1] is 4.51 [a].
As to `Cn1c(/C(=N\OCc2cccc(NC(=O)CCCC[n+]3ccccc3)n2)c2ccccc2)noc1=O.O=C[O-]` [Example 67], the Eff. % in the data set on Phytophthora infestans was 89%; with Botrytis cinerea it was 80%; in data set [2], 90%; with Puccinia recondita, 98%. Also, in data set [1], the lipophilicity (LogP) was 1.67 [a].
With `CCC(=O)Nc1cccc(CO/N=C(/c2ccccc2)c2noc(=O)n2C)n1` [Example 71], the Eff. % with Phytophthora infestans is recorded as 99%; in the data set with Pyrenophora teres it was 70%; in [2], 88%. In addition, the lipophilicity (LogP) in data set [1] was 2.77 [a].
For the compound `Cn1c(/C(=N\OCc2cccc(NC(=O)CCC3CCCC3)n2)c2ccccc2)noc1=O` [Example 84], the Eff. % with Phytophthora infestans turned out to be 100%; in the data set on Pyrenophora teres, 70%. For the same compound, the log partition coefficient (LogP) in data set [1] was 4.36 [a].
Consider `Cc1cccc(/C(=N/OCc2cccc(NC(=O)OCc3ccccc3)n2)c2noc(=O)n2C)c1` [Example 117], for which the Eff. % is 79% in the data set with Pyrenophora teres and 90% in data set [2]. In addition, the lipophilicity (LogP) in data set [1] is 4.31 [a].
In the case of `CCCCC(=O)Nc1cccc(CO/N=C(/c2cccc(F)c2)c2noc(=O)n2C)n1` [Example 140], the Eff. % in the data set with Plasmopara viticola was found to be 85%; in the data set with Phytophthora infestans, 100%; in the data set on Uromyces appendiculatus, 73%; with Puccinia recondita, 86%. Further, the LogP in [1] is 3.61 [a].
On to `Cc1ccc(C(=O)Nc2nc(CO/N=C(/c3ccccc3)c3noc(=O)n3C)cs2)cc1` [Example 180], for which the Eff. % in the data set with Plasmopara viticola worked out at 95%; in the data set on Phytophthora infestans it was 98%; with Botrytis cinerea it was 83%. Also, the log partition coefficient (LogP) in data set [1] was 3.76 [a].
Regarding `C#CCCOC(=O)Nc1cccc(CO/N=C(/c2cccc(OC)c2)c2noc(=O)n2C)n1` [Example 228], the Eff. % with Plasmopara viticola was determined as 93%; with Phytophthora infestans it was 100%; with Uromyces appendiculatus, 70%; with Puccinia recondita, 81%. Moreover, in data set [1], the log partition coefficient (LogP) is 3.33 [a].
Take `Cc1cccc(C(=NOCc2cccc(NC(=O)OC3CCCCC3)n2)c2noc(=O)n2C)c1` [Example 250]: the values for the Eff. % (with Phytophthora infestans; in the data set with Pyrenophora teres; in data set [2]) were 80%, 79% and 96%, respectively. Besides, in [1], the LogP is 4.82 [a].
Turning to `Cn1c(C(=NOCc2cccc(NC(=O)Cc3cc(F)ccc3F)n2)c2ccccc2)noc1=O` [Example 255], the Eff. % in the data set with Phytophthora infestans was determined as 98%; in the data set with Pyrenophora teres, 70%; in data set [2], 88%. Moreover, the log partition coefficient (LogP) in data set [1] is 3.62 [a].
On to `C=CCCC(=O)Nc1cccc(CON=C(c2ccccc2)c2noc(=O)n2C)n1` [Example 256], for which the Eff. % with Phytophthora infestans is recorded as 100%; in the data set with Pyrenophora teres, 90%. The LogP in data set [1] is 3.25 [a].
On to `CC(C)C=CCCCCC(=O)Nc1cccc(CON=C(c2ccccc2)c2noc(=O)n2C)n1` [Example 268], for which the Eff. % was found to be 100% in the data set on Phytophthora infestans and 96% in the data set with Pyrenophora teres. In addition, the lipophilicity (LogP) in data set [1] is 5.06 [a].
Consider `Cn1c(/C(=N\OCc2cccc(NC(=O)COCc3ccccc3)n2)c2ccccc2)noc1=O` [Example 278], for which the results for the Eff. % in the data set on Phytophthora infestans and in the data set with Botrytis cinerea were 100% and 78%, respectively. For the same compound, in [1], the log partition coefficient (LogP) was 3.87 [a].
`CCn1c(C(=NOCc2cccc(NC(=O)CC(C)C)n2)c2ccccc2)noc1=O` [Example 280]: the Eff. % with Phytophthora infestans worked out at 100%; with Uromyces appendiculatus it was 83%; with Puccinia recondita it was 98%. For the same compound, in [1], the LogP was 3.7 [a].
With `Cn1c(/C(=N\OCc2cccc(NC(=O)c3ccc(Cl)cc3Cl)n2)c2ccccc2)noc1=O` [Example 332], the figures for the Eff. % in the data set with Phytophthora infestans and in the data set with Botrytis cinerea were 85% and 71%, respectively. Moreover, the log partition coefficient (LogP) in data set [1] is 4.14 [a].
Regarding `Cn1c(/C(=N\OCc2csc(NC(=O)c3ccc(Br)cc3)n2)c2ccccc2)noc1=O` [Example 373], the Eff. % in the data set with Phytophthora infestans is on record as 97%; in the data set with Botrytis cinerea it was 85%. Besides, the LogP in data set [1] is 4.01 [a].
With `COCC(=O)Nc1cccc(CO/N=C(/c2ccccc2)c2noc(=O)n2C)n1` [Example 379], the Eff. % in the data set on Phytophthora infestans and in the data set on Pyrenophora teres was 100% in each case. In addition, in data set [1], the lipophilicity (LogP) was 2.73 [a].
`CCCCCOC(=O)Nc1cccc(CO/N=C(/c2cccc(F)c2)c2noc(=O)n2C)n1` [Example 406]: the Eff. % in the data set on Plasmopara viticola is on record as 79%; with Phytophthora infestans, 94%; in the data set on Uromyces appendiculatus, 79%; in data set [2] it was 79%; with Puccinia recondita, 81%. Besides, the lipophilicity (LogP) in data set [1] was 4.53 [a].

For the origin of these results see patent US9090600B2, “Fungicidal 4-substituted-3-{phenyl[(heterocyclylmethoxy)imino]methyl}-1,2,4-oxadizol-5(4H)-one derivatives” (BAYER INTELLECTUAL PROPERTY GMBH, priority 2011, dated 2015).
